Experimental data published in publication PMC7179259, “Safety, Tolerability, Pharmacokinetics, and Antimalarial Activity of the Novel Plasmodium Phosphatidylinositol 4-Kinase Inhibitor MMV390048 in Healthy Volunteers” (Antimicrobial Agents and Chemotherapy, 2020).
Marks after values point to notes of the source that are not given here.

Experiments:
healthy volunteers = experiment: First-in-human single-ascending-dose study: safety and tolerability; assay type: in vivo; details: for lowest observed neutrophil count: 24 h after 40 mg
Method: The first-in-human study was conducted at the University of Cape Town Clinical Research Centre (Cape Town, South Africa) between 30 April 2014 and 2 February 2015. This was a phase 1, adaptive, single-center, double-blind, randomized, placebo-controlled, ascending-dose study. The study was planned in two parts, with a single ascending dose and then a multiple ascending dose. However, the multiple-ascending-dose part was not executed due to the high variability in pharmacokinetic profiles observed during the single-ascending-dose part (see Results).
(i) First-in-human study. The study was conducted in five fasted cohorts (5, 20, 40, 80, and 120 mg) and one fed 40-mg cohort. The initial dose of 5 mg was chosen in agreement with guidelines on dose selection for first-in-human clinical studies ([15], [16]) and was based on the no-observed-adverse-event level for the most sensitive species observed in preclinical toxicology studies. Doses administered to subsequent cohorts were determined a priori after consideration of interim human pharmacokinetic and safety data.
MMV390048 and placebo were each supplied as a powder for suspension packaged in white opaque high-density polyethylene bottles, with a volume capacity of 100 ml when reconstituted with deionized water (Almac Pharma Services, United Kingdom). The powder contained the following excipients: Avicel CL611, disodium edetate, sodium citrate dihydrate, methyl paraben, sucralose, povidone, and orange flavor. The reconstituted formulation consisted of the active ingredient MMV390048 in an aqueous suspension of 5 mg ml^−1.
All subjects in the fasted cohorts were dosed on day 1 after a fasting period of ≥8 h. Water was prohibited from 2 h predose and then allowed ad libitum from 2 h postdose, and standardized meals were provided from 4 h postdose. In the first two cohorts (5 and 20 mg), a sentinel subcohort (n = 2) was dosed on day 1. The safety review team reviewed safety and pharmacokinetic data of these subjects up to day 3 before dosing the rest of these two cohorts and up to day 19 for all cohorts before dose escalation. […] Selected subjects from the fasted cohorts then received 40 mg in a fed state to evaluate the effect of food on the tolerability and pharmacokinetic profile of MMV390048. […] The predose breakfast was in line with FDA guidelines ([13]) and was composed of approximately 800 to 1,000 calories (cal), with 150, 250, and 500 to 600 cal from protein, carbohydrate, and fat, respectively.
Safety endpoints were the incidence, severity, and relationship to the investigational product (and inoculum for the IBSM study) of observed and self-reported adverse events (AEs), and changes from baseline in physical examination, vital signs, standard electrocardiograms (ECGs), continuous ECGs (first-in-human study only), and laboratory evaluation (hematology, coagulation parameters, hemolysis panel, clinical chemistry, and urinalysis) findings. […] AE severity was evaluated according to the Common Terminology Criteria for Adverse Events version 4.03 ([18]) and the World Health Organization recommendations for grading acute and subacute toxic effects ([19]).

[1] = design: method as in PMID 28446690; details: predicted for humans; cited from earlier work
[2] = first-in-human study, 5 mg (n = 6)
[3] = first-in-human study, 20 mg (n = 6)
[4] = first-in-human study, 40 mg (n = 6)
[5] = first-in-human study, 40 mg (n = 6), AE was neutropenia
[6] = first-in-human study, 40 mg FED (n = 6)
[7] = first-in-human study, 40 mg FED (n = 6), AE was neutropenia
[8] = first-in-human study, 80 mg (n = 6)
[9] = first-in-human study, 120 mg (n = 6)
[10] = first-in-human study, 120 mg (n = 6), SAE was generalized myoclonus

CS(=O)(=O)c1ccc(-c2cnc(N)c(-c3ccc(C(F)(F)F)nc3)c2)cc1 [MMV390048]
serious AE (SAE) reported (healthy volunteers; approximately 24 h after 120 mg, subject with undisclosed history of epilepsy): generalized myoclonus
No. (%) of subjects with adverse events: All AEs (healthy volunteers; [2]): 4 (67)
No. (%) of subjects with adverse events: All AEs, Treatment related (healthy volunteers; [2]): 0
No. (%) of subjects with adverse events: Grade 2 AEs (healthy volunteers; [2]): 0
No. (%) of subjects with adverse events: Grade 2 AEs, Treatment related (healthy volunteers; [2]): 0
No. (%) of subjects with adverse events: Grade 3 AEs (healthy volunteers; [2]): 0
No. (%) of subjects with adverse events: SAEs (healthy volunteers; [2]): 0
No. of adverse events: All AEs (healthy volunteers; [2]): 11
No. of adverse events: All AEs, Treatment related (healthy volunteers; [2]): 0
No. of adverse events: Grade 2 AEs (healthy volunteers; [2]): 0
No. of adverse events: Grade 2 AEs, Treatment related (healthy volunteers; [2]): 0
No. of adverse events: Grade 3 AEs (healthy volunteers; [2]): 0
No. of adverse events: SAEs (healthy volunteers; [2]): 0
No. (%) of subjects with adverse events: All AEs (healthy volunteers; [3]): 5 (83)
No. (%) of subjects with adverse events: All AEs, Treatment related (healthy volunteers; [3]): 3 (50)
No. (%) of subjects with adverse events: Grade 2 AEs (healthy volunteers; [3]): 4 (67)
No. (%) of subjects with adverse events: Grade 2 AEs, Treatment related (healthy volunteers; [3]): 1 (17)
No. (%) of subjects with adverse events: Grade 3 AEs (healthy volunteers; [3]): 0
No. (%) of subjects with adverse events: SAEs (healthy volunteers; [3]): 0
No. of adverse events: All AEs (healthy volunteers; [3]): 12
No. of adverse events: All AEs, Treatment related (healthy volunteers; [3]): 3
No. of adverse events: Grade 2 AEs (healthy volunteers; [3]): 5
No. of adverse events: Grade 2 AEs, Treatment related (healthy volunteers; [3]): 1
No. of adverse events: Grade 3 AEs (healthy volunteers; [3]): 0
No. of adverse events: SAEs (healthy volunteers; [3]): 0
No. (%) of subjects with adverse events: All AEs (healthy volunteers; [4]): 5 (83)
No. (%) of subjects with adverse events: All AEs, Treatment related (healthy volunteers; [4]): 3 (50)
No. (%) of subjects with adverse events: Grade 2 AEs (healthy volunteers; [4]): 3 (50)
No. (%) of subjects with adverse events: Grade 2 AEs, Treatment related (healthy volunteers; [4]): 1 (17)
No. (%) of subjects with adverse events: SAEs (healthy volunteers; [4]): 0
No. of adverse events: All AEs (healthy volunteers; [4]): 19
No. of adverse events: All AEs, Treatment related (healthy volunteers; [4]): 3
No. of adverse events: Grade 2 AEs (healthy volunteers; [4]): 4
No. of adverse events: Grade 2 AEs, Treatment related (healthy volunteers; [4]): 1
No. of adverse events: SAEs (healthy volunteers; [4]): 0
No. (%) of subjects with adverse events: Grade 3 AEs (healthy volunteers; [5]): 1 (17)^c
No. of adverse events: Grade 3 AEs (healthy volunteers; [5]): 1^c
No. (%) of subjects with adverse events: All AEs (healthy volunteers; [6]): 6 (100)
No. (%) of subjects with adverse events: All AEs, Treatment related (healthy volunteers; [6]): 2 (33)
No. (%) of subjects with adverse events: Grade 2 AEs (healthy volunteers; [6]): 2 (33)
No. (%) of subjects with adverse events: Grade 2 AEs, Treatment related (healthy volunteers; [6]): 1 (17)
No. (%) of subjects with adverse events: SAEs (healthy volunteers; [6]): 0
No. of adverse events: All AEs (healthy volunteers; [6]): 22
No. of adverse events: All AEs, Treatment related (healthy volunteers; [6]): 2
No. of adverse events: Grade 2 AEs (healthy volunteers; [6]): 2
No. of adverse events: Grade 2 AEs, Treatment related (healthy volunteers; [6]): 1
No. of adverse events: SAEs (healthy volunteers; [6]): 0
No. (%) of subjects with adverse events: Grade 3 AEs (healthy volunteers; [7]): 1 (17)^c
No. of adverse events: Grade 3 AEs (healthy volunteers; [7]): 1^c
No. (%) of subjects with adverse events: All AEs (healthy volunteers; [8]): 6 (100)
No. (%) of subjects with adverse events: All AEs, Treatment related (healthy volunteers; [8]): 2 (33)
No. (%) of subjects with adverse events: Grade 2 AEs (healthy volunteers; [8]): 5 (83)
No. (%) of subjects with adverse events: Grade 2 AEs, Treatment related (healthy volunteers; [8]): 0
No. (%) of subjects with adverse events: Grade 3 AEs (healthy volunteers; [8]): 0
No. (%) of subjects with adverse events: SAEs (healthy volunteers; [8]): 0
No. of adverse events: All AEs (healthy volunteers; [8]): 20
No. of adverse events: All AEs, Treatment related (healthy volunteers; [8]): 3
No. of adverse events: Grade 2 AEs (healthy volunteers; [8]): 6
No. of adverse events: Grade 2 AEs, Treatment related (healthy volunteers; [8]): 0
No. of adverse events: Grade 3 AEs (healthy volunteers; [8]): 0
No. of adverse events: SAEs (healthy volunteers; [8]): 0
No. (%) of subjects with adverse events: All AEs (healthy volunteers; [9]): 6 (100)
No. (%) of subjects with adverse events: All AEs, Treatment related (healthy volunteers; [9]): 1 (17)
No. (%) of subjects with adverse events: Grade 2 AEs (healthy volunteers; [9]): 2 (33)
No. (%) of subjects with adverse events: Grade 2 AEs, Treatment related (healthy volunteers; [9]): 1 (17)
No. (%) of subjects with adverse events: Grade 3 AEs (healthy volunteers; [9]): 0
No. of adverse events: All AEs (healthy volunteers; [9]): 11
No. of adverse events: All AEs, Treatment related (healthy volunteers; [9]): 1
No. of adverse events: Grade 2 AEs (healthy volunteers; [9]): 3
No. of adverse events: Grade 2 AEs, Treatment related (healthy volunteers; [9]): 1
No. of adverse events: Grade 3 AEs (healthy volunteers; [9]): 0
No. (%) of subjects with adverse events: SAEs (healthy volunteers; [10]): 1 (17)^e
No. of adverse events: SAEs (healthy volunteers; [10]): 1^e
trends in inhibin B, FSH, LH, or testosterone levels (healthy volunteers; first-in-human study, across dose groups): No trends
adverse events considered potentially related to MMV390048 (healthy volunteers; first-in-human study, all MMV390048 cohorts): Twelve
QT prolongation (QTcF, >450 ms) (healthy volunteers; first-in-human study, any subject): No QT prolongation
decrease in blood pressure (to) (healthy volunteers; first-in-human study, mild related AE, one subject): 87/52
diarrhea considered related to MMV390048, cases (healthy volunteers; first-in-human study, moderate severity, in 2 subjects): 2
duration of moderate papular urticaria episode (healthy volunteers; one subject, 20 mg): 20 days
onset of moderate papular urticaria after dosing (healthy volunteers; one subject, 20 mg): 14 days
time for neutrophil count to return to >1.5 × 10^9 liter^−1 (healthy volunteers; one subject, 40 mg fasted): 4 days
time for neutrophil count to return to >1.5 × 10^9 liter^−1 (healthy volunteers; one subject, 40 mg fed): 13 days
PR prolongation on ECG, maximum (healthy volunteers; one subject, 24 h after 20 mg, PR 200.3 ms on admission): 285 ms
lowest observed neutrophil count (healthy volunteers; one subject, fasted state (predose 1.65)): 7.7e+08 L⁻¹
lowest observed neutrophil count (healthy volunteers; one subject, fed state (predose 1.90)): 9.7e+08 L⁻¹
tolerability (healthy volunteers; single oral dose up to 120 mg, healthy volunteers): generally well tolerated
elimination half-life in humans predicted from preclinical studies [1]: 90 h
